Source: the kinase profiling compilation of Christmann-Franck et al. (2016)

Legend:
Experiment in all cases: KINOMEscan competition binding
Details in all cases: compound 10.0 µM
[1] = target: LYN (human) (UniProt P07948)
[2] = target: AAK1 (human) (UniProt Q2M2I8)
[3] = test system: KIT (human), P10721 [L576P]
[4] = target: NEK6 (human) (UniProt Q9HC98)
[5] = target: BRSK2 (human) (UniProt Q8IWQ3)
[6] = target: NUAK1 (human) (UniProt O60285)
[7] = target: MAST1 (human) (UniProt Q9Y2H9)
[8] = target: FRK (human) (UniProt P42685)
[9] = target: STK17B (human) (UniProt O94768)
[10] = target: MST4 (human) (UniProt Q9P289)
[11] = target: EPHB1 (human) (UniProt P54762)
[12] = target: CDK16 (human) (UniProt Q00536)
[13] = target: ULK3 (human) (UniProt Q6PHR2)
[14] = target: PIM1 (human) (UniProt P11309)
[15] = target: MAP3K6 (human) (UniProt O95382)
[16] = target: DAPK3 (human) (UniProt O43293)
[17] = target: MAP3K4 (human) (UniProt Q9Y6R4)
[18] = target: RPS6KA6 KD1 (human) (UniProt Q9UK32)
[19] = target: MAPK3 (human) (UniProt P27361)
[20] = target: PKN3 (M.tuberculosis) (UniProt Q6P5Z2)
[21] = target: STK32B (human) (UniProt Q9NY57)
[22] = target: CDK11B (human) (UniProt P21127)
[23] = target: STK38L (human) (UniProt Q9Y2H1)
[24] = target: MAP4K1 (human) (UniProt Q92918)
[25] = target: FYN (human) (UniProt P06241)
[26] = target: CRK2 (P.falciparum) (UniProt P61075)
[27] = target: FGR (human) (UniProt P09769)
[28] = target: CDK13 (human) (UniProt Q14004)
[29] = target: PRKG1 (human) (UniProt Q13976)
[30] = target: PHKG2 (human) (UniProt P15735)
[31] = target: MAP3K5 (human) (UniProt Q99683)
[32] = test system: FLT3 (human), P36888 [D835H]
[33] = target: GSK3A (human) (UniProt P49840)
[34] = target: CSNK1G2 (human) (UniProt P78368)
[35] = target: MINK1 (human) (UniProt Q8N4C8)
[36] = target: ERBB2 (human) (UniProt P04626)
[37] = target: BLK (human) (UniProt P51451)
[38] = target: FES (human) (UniProt P07332)
[39] = target: PTK2B (human) (UniProt Q14289)
[40] = target: MET (human) (UniProt P08581)

Sequence of FYN (human) (P06241 whole entry, looked up): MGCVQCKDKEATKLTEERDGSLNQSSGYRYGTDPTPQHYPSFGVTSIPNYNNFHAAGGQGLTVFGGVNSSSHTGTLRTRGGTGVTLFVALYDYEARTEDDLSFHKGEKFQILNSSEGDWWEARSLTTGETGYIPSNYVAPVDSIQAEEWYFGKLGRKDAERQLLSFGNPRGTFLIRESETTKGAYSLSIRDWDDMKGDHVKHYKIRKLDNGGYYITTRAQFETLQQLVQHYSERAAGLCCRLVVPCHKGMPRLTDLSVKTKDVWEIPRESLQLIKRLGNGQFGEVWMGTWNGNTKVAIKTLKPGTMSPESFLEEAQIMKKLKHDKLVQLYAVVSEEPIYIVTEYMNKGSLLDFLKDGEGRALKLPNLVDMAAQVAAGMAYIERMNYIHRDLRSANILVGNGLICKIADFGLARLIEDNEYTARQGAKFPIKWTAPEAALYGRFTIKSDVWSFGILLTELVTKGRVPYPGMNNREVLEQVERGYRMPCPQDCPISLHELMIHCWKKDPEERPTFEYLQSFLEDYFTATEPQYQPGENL
Sequence of MAPK3 (human) (P27361 whole entry, looked up): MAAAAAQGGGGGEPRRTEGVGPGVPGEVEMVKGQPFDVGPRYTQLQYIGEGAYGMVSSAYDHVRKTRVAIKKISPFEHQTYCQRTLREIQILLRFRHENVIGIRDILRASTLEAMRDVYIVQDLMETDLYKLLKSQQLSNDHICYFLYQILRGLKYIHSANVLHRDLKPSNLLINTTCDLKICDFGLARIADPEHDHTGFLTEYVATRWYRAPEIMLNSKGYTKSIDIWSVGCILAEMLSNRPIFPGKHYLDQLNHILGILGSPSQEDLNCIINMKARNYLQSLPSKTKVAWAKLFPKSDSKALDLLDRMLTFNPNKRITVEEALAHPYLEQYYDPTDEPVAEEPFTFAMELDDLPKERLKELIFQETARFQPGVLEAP
Sequence of NUAK1 (human) (O60285 whole entry, looked up): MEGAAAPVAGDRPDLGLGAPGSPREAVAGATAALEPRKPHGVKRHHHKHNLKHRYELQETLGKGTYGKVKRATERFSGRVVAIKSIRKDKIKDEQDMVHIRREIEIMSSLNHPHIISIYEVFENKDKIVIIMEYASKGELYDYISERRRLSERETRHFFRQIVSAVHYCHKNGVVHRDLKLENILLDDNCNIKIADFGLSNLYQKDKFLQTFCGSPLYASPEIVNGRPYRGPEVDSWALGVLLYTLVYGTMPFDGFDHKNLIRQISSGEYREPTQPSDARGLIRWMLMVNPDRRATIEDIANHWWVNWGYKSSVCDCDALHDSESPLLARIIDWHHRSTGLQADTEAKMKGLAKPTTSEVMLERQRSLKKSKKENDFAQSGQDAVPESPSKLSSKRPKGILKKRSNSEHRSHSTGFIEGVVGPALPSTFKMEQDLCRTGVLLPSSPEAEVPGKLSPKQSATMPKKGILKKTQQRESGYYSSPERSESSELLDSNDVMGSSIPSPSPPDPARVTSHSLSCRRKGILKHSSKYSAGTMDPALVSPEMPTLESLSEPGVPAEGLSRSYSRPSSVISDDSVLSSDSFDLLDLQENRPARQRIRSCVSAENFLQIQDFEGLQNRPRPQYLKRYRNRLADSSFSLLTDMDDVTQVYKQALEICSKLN
Sequence of MAP4K1 (human) (Q92918 whole entry, looked up): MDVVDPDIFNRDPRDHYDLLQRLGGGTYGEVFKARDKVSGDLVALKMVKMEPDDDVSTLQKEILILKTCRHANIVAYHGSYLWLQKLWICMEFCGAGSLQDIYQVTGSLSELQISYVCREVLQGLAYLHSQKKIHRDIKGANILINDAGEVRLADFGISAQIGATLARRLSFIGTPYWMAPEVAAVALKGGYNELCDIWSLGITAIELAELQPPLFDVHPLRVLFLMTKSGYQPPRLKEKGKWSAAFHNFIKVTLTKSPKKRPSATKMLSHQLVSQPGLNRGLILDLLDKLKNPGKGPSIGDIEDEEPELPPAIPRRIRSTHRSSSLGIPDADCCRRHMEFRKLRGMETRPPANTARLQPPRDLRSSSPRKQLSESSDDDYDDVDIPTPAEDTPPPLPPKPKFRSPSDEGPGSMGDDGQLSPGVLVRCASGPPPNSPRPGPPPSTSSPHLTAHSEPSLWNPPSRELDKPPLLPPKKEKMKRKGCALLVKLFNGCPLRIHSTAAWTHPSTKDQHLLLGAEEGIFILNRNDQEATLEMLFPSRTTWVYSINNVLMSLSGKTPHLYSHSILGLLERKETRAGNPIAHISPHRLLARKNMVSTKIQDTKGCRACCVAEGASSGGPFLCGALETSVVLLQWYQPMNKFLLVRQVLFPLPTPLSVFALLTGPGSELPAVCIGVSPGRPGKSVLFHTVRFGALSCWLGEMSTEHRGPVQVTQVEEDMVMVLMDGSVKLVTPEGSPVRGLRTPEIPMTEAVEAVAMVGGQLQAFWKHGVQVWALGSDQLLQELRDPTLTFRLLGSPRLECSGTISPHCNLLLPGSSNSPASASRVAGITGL
Sequence of PHKG2 (human) (P15735 whole entry, looked up): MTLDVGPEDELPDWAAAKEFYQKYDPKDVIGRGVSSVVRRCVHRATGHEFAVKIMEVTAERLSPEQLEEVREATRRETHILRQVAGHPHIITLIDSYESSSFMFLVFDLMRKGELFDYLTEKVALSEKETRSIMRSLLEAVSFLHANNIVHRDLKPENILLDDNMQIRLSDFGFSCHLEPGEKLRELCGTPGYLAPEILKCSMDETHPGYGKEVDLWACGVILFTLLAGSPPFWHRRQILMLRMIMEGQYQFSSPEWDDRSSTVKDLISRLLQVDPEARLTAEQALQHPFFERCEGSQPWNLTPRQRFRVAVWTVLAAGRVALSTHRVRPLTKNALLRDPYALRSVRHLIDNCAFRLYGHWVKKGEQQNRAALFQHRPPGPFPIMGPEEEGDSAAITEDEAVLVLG
Sequence of AAK1 (human) (Q2M2I8 whole entry, looked up): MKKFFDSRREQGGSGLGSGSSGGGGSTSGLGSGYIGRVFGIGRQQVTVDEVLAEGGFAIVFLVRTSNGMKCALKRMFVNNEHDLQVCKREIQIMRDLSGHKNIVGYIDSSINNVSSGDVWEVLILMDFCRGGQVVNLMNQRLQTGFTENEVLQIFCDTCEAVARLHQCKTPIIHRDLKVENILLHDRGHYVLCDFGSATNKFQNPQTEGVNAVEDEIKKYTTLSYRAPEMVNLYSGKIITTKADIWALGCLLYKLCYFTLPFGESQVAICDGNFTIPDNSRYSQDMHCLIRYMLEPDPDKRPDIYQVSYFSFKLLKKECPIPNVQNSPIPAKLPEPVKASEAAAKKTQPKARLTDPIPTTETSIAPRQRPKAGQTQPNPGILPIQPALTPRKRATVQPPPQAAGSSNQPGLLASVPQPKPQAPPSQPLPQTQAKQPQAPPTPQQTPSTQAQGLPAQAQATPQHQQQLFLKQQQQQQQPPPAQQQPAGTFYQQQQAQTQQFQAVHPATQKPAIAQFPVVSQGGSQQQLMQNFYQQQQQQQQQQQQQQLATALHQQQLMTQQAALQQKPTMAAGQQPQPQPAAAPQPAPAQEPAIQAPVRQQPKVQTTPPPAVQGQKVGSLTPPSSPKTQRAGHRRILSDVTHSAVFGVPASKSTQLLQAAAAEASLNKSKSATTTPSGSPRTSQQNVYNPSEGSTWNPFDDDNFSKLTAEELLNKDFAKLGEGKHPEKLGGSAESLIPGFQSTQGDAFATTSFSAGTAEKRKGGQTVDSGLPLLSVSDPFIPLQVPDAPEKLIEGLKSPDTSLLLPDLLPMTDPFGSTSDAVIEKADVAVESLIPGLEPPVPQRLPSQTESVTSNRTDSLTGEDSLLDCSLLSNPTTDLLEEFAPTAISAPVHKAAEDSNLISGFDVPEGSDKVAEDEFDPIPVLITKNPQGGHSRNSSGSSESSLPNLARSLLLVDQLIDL
Sequence of PRKG1 (human) (Q13976 whole entry, looked up): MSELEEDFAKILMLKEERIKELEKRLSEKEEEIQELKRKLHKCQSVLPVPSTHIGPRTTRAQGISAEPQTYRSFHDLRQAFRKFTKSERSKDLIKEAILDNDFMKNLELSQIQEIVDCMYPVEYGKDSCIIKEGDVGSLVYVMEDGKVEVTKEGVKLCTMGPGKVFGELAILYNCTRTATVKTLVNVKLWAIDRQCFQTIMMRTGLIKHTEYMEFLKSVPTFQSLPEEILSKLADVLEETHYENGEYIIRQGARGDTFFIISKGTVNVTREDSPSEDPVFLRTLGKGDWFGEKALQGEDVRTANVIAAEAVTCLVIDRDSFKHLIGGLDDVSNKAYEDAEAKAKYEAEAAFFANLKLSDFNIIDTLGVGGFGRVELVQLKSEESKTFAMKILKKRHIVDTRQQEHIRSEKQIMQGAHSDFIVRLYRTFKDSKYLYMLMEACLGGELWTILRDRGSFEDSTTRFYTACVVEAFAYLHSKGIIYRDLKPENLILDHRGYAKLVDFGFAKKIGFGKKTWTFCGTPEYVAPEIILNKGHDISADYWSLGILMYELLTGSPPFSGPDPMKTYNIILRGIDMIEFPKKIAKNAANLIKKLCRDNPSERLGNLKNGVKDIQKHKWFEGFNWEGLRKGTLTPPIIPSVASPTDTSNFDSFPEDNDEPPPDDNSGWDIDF
Sequence of PIM1 (human) (P11309 whole entry, looked up): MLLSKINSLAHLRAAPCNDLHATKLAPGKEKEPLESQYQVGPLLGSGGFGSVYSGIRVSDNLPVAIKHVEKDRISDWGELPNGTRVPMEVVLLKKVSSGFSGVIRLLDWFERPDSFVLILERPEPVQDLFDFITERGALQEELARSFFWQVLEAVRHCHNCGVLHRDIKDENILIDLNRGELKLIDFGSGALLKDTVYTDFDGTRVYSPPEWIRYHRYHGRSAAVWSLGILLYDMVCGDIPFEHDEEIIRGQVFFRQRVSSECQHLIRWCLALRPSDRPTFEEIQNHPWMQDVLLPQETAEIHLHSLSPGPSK

SMILES	kinase still bound, per cent of control [1] [%]	kinase still bound, per cent of control [2] [%]	kinase still bound, per cent of control [3] [%]	kinase still bound, per cent of control [4] [%]	kinase still bound, per cent of control [5] [%]	kinase still bound, per cent of control [6] [%]	kinase still bound, per cent of control [7] [%]	kinase still bound, per cent of control [8] [%]	kinase still bound, per cent of control [9] [%]	kinase still bound, per cent of control [10] [%]	kinase still bound, per cent of control [11] [%]	kinase still bound, per cent of control [13] [%]	kinase still bound, per cent of control [14] [%]	kinase still bound, per cent of control [15] [%]	kinase still bound, per cent of control [16] [%]	kinase still bound, per cent of control [17] [%]	kinase still bound, per cent of control [18] [%]	kinase still bound, per cent of control [19] [%]	kinase still bound, per cent of control [21] [%]	kinase still bound, per cent of control [22] [%]	also measured
C[C@@H](Oc1cc(-c2cnn(C3CCNCC3)c2)cnc1N)c1c(Cl)ccc(F)c1Cl	13	21	43	27	65	0.7	100	15	100	13	0.15	8.8	100	87	94	34	46	100	100	0.1	kinase still bound, per cent of control [12]: 96%; kinase still bound, per cent of control [20]: 30%; kinase still bound, per cent of control [23]: 95%; kinase still bound, per cent of control [24]: 4.6%; kinase still bound, per cent of control [25]: 10%; kinase still bound, per cent of control [26]: 95%; kinase still bound, per cent of control [27]: 6.8%; kinase still bound, per cent of control [28]: 24%; kinase still bound, per cent of control [29]: 100%; kinase still bound, per cent of control [30]: 32%; kinase still bound, per cent of control [31]: 100%; kinase still bound, per cent of control [32]: 6.8%; kinase still bound, per cent of control [33]: 100%; kinase still bound, per cent of control [34]: 100%; kinase still bound, per cent of control [35]: 18%
CS(=O)(=O)N1CCN(Cc2cc3nc(-c4cccc5[nH]ncc45)nc(N4CCOCC4)c3s2)CC1	100	100	100	100	100	100	100	100	100	100	100	100	100	100	100	100	100	100	100	100	kinase still bound, per cent of control [36]: 100%; kinase still bound, per cent of control [37]: 100%; kinase still bound, per cent of control [38]: 100%; kinase still bound, per cent of control [39]: 100%; kinase still bound, per cent of control [40]: 100%; kinase still bound, per cent of control [23]: 100%; kinase still bound, per cent of control [24]: 100%; kinase still bound, per cent of control [25]: 100%; kinase still bound, per cent of control [27]: 100%; kinase still bound, per cent of control [29]: 100%; kinase still bound, per cent of control [30]: 100%; kinase still bound, per cent of control [31]: 100%; kinase still bound, per cent of control [32]: 100%; kinase still bound, per cent of control [33]: 100%; kinase still bound, per cent of control [34]: 100%; kinase still bound, per cent of control [35]: 100%
COc1cc(N2CCN(C)CC2)ccc1Nc1ncc2c(n1)N(C)c1ccccc1C(=O)N2C	100	100	100	100	100	7.6	100	2.6	100	100	100	100	100	100	100	100	100	100	100	100	kinase still bound, per cent of control [36]: 100%; kinase still bound, per cent of control [12]: 100%; kinase still bound, per cent of control [37]: 100%; kinase still bound, per cent of control [38]: 100%; kinase still bound, per cent of control [39]: 100%; kinase still bound, per cent of control [40]: 100%; kinase still bound, per cent of control [23]: 100%; kinase still bound, per cent of control [24]: 100%; kinase still bound, per cent of control [25]: 100%; kinase still bound, per cent of control [27]: 100%; kinase still bound, per cent of control [29]: 100%; kinase still bound, per cent of control [30]: 29%; kinase still bound, per cent of control [31]: 100%; kinase still bound, per cent of control [32]: 100%; kinase still bound, per cent of control [33]: 100%; kinase still bound, per cent of control [34]: 100%; kinase still bound, per cent of control [35]: 100%
CCN(CC)CCCCNc1ncc2c(n1)N(C)C(=O)N(c1c(Cl)c(OC)cc(OC)c1Cl)C2	34	100	2.3	100	100	100	100	100	100	11	100	100	100	100	100	5.3	100	100	100	100	kinase still bound, per cent of control [36]: 100%; kinase still bound, per cent of control [12]: 100%; kinase still bound, per cent of control [37]: 100%; kinase still bound, per cent of control [38]: 100%; kinase still bound, per cent of control [39]: 100%; kinase still bound, per cent of control [40]: 100%; kinase still bound, per cent of control [23]: 100%; kinase still bound, per cent of control [24]: 100%; kinase still bound, per cent of control [25]: 100%; kinase still bound, per cent of control [27]: 100%; kinase still bound, per cent of control [29]: 100%; kinase still bound, per cent of control [30]: 100%; kinase still bound, per cent of control [31]: 100%; kinase still bound, per cent of control [32]: 100%; kinase still bound, per cent of control [33]: 100%; kinase still bound, per cent of control [34]: 100%; kinase still bound, per cent of control [35]: 100%
